Laboratory results taken from ChEMBL document CHEMBL5055650, “4-Acyl Pyrrole Capped HDAC Inhibitors: A New Scaffold for Hybrid Inhibitors of BET Proteins and Histone Deacetylases as Antileukemia Drug Leads” (J Med Chem, 2021).
pIC50: −log10 of the molar value. The source made the active and inactive calls. No cut-off for these calls is given here.

Columns and labels:
[1] = test system: TALL-1; experiment: Cytotoxicity against human TALL-1 cells assessed as cell viability at 5 uM by CellTiter-Glo luminescent assay; format: functional; conditions: read-out: Activity
[2] = biological target: Histone deacetylase 3 (Homo sapiens, UniProt O15379); experiment: Inhibition of human HDAC3 assessed as target activity using fluorogenic substrate ZMAL for 90 min by microplate reader at 355nm
[3] = test system: HPBALL; experiment: Anticancer activity against human HPBALL cells assessed as cell growth inhibition by CellTiter-Glo luminescent assay; format: functional, cell-based
[4] = test system: K562; experiment: Anticancer activity against human K562 cells assessed as cell growth inhibition by CellTiter-Glo luminescent assay; format: functional, cell-based
[5] = Nonlethal toxicity in zebrafish embryos assessed as embryo survival at 0.005 uM after 72 hrs by visual analysis (reference value: 100%); format: organism-based, Danio rerio; conditions: in vivo
[6] = Nonlethal toxicity in zebrafish embryos assessed as embryo survival at 0.5 uM after 72 hrs by visual analysis (reference value: 100%); format: organism-based, Danio rerio; conditions: in vivo
[7] = Nonlethal toxicity in zebrafish embryos assessed as embryo survival at 50 uM after 72 hrs by visual analysis (reference value: 100%); format: organism-based, Danio rerio; conditions: in vivo
[8] = biological target: T1, Histone deacetylase (Homo sapiens) (UniProt Q13547+O15379+Q9UBN7+Q92769+Q9UQL6+Q8WUI4+Q9BY41+Q96DB2+P56524+Q9UKV0+Q969S8); experiment: Inhibition of HDAC in human K562 cells assessed as decrease in MYC expression measured after 24 to 72 hrs by Western blot analysis; format: cell-based; conditions: time 24-72 hrs
[9] = test system: HPBALL; experiment: Induction of apoptosis in human HPBALL cells assessed as increase in caspase3/7 activity at 5 uM after 48 hrs by luminescent based Glo assay; format: functional, cell-based
[10] = biological target: T1, Histone deacetylase (Homo sapiens); experiment: Inhibition of HDAC in human K562 cells assessed as increase in acetylated alpha-tubulin measured after 48 hrs by Western blot analysis; format: cell-based
[11] = test system: HPBALL; experiment: Induction of apoptosis in human HPBALL cells assessed as annexin V positive cells at 5 uM after 48 hrs by annexin V/PI staining measured by flow cytometry; format: functional, cell-based
[12] = test system: HPBALL; experiment: Anticancer activity against human HPBALL cells assessed as reduction in total number of colony forming units at 5 uM measured after 24 hrs by colony formation assay; format: functional, cell-based
[13] = test system: Danio rerio; experiment: Toxicity in zebrafish embryos assessed as pericardial edema at 0.5 uM after 72 hrs by visual analysis (reference value: 10%); format: organism-based, Embryo; conditions: in vivo
[14] = test system: Danio rerio; experiment: Toxicity in zebrafish embryos assessed as pericardial edema at 50 uM after 72 hrs by visual analysis (reference value: 10%); format: organism-based, Embryo; conditions: in vivo
[15] = species: Danio rerio; experiment: Toxicity in zebrafish embryos assessed as head necrosis at 0.05 uM after 72 hrs by visual analysis (reference value: 0%); format: organism-based; conditions: in vivo
[16] = species: Danio rerio; experiment: Toxicity in zebrafish embryos assessed as head necrosis at 0.5 uM after 72 hrs by visual analysis (reference value: 0%); format: organism-based; conditions: in vivo
[17] = species: Danio rerio; experiment: Toxicity in zebrafish embryos assessed as head necrosis at 50 uM after 72 hrs by visual analysis (reference value: 0%); format: organism-based; conditions: in vivo
[18] = species: Danio rerio; experiment: Toxicity in zebrafish embryos assessed as tail necrosis at 0.5 uM after 72 hrs by visual analysis (reference value: 0%); format: organism-based; conditions: in vivo
[19] = species: Danio rerio; experiment: Toxicity in zebrafish embryos assessed as tail necrosis at 50 uM after 72 hrs by visual analysis (reference value: 0%); format: organism-based; conditions: in vivo
[20] = species: Danio rerio; experiment: Toxicity in zebrafish embryos assessed as malformation of head at 0.005 uM after 72 hrs by visual analysis (reference value: 0%); format: organism-based; conditions: in vivo
[21] = species: Danio rerio; experiment: Toxicity in zebrafish embryos assessed as malformation of head at 50 uM after 72 hrs by visual analysis (reference value: 0%); format: organism-based; conditions: in vivo
[22] = species: Danio rerio; experiment: Toxicity in zebrafish embryos assessed as malformation of tail at 0.5 uM after 72 hrs by visual analysis (reference value: 5%); format: organism-based; conditions: in vivo
[23] = species: Danio rerio; experiment: Toxicity in zebrafish embryos assessed as malformation of tail at 5 uM after 72 hrs by visual analysis (reference value: 5%); format: organism-based; conditions: in vivo
[24] = species: Danio rerio; experiment: Toxicity in zebrafish embryos assessed as teratogenesis at 0.005 uM after 72 hrs by visual analysis (reference value: 0%); format: organism-based, Embryo; conditions: in vivo
[25] = species: Danio rerio; experiment: Toxicity in zebrafish embryos assessed as teratogenesis at 0.05 uM after 72 hrs by visual analysis (reference value: 0%); format: organism-based, Embryo; conditions: in vivo
[26] = species: Danio rerio; experiment: Toxicity in zebrafish embryos assessed as teratogenesis at 50 uM after 72 hrs by visual analysis (reference value: 0%); format: organism-based, Embryo; conditions: in vivo
[27] = species: Danio rerio; experiment: Toxicity in zebrafish embryos assessed as cardiac teratogenesis/necrosis at 0.05 uM after 72 hrs by visual analysis (reference value: 0%); format: organism-based, Embryo; conditions: in vivo
[28] = species: Danio rerio; experiment: Toxicity in zebrafish embryos assessed as cardiac teratogenesis/necrosis at 0.5 uM after 72 hrs by visual analysis (reference value: 0%); format: organism-based, Embryo; conditions: in vivo
[29] = species: Danio rerio; experiment: Toxicity in zebrafish embryos assessed as cardiac teratogenesis/necrosis at 5 uM after 72 hrs by visual analysis (reference value: 0%); format: organism-based, Embryo; conditions: in vivo
[30] = species: Danio rerio; experiment: Toxicity in zebrafish embryos assessed as cardiac teratogenesis/necrosis at 50 uM after 72 hrs by visual analysis (reference value: 0%); format: organism-based, Embryo; conditions: in vivo
[31] = species: Danio rerio; experiment: Toxicity in zebrafish embryos assessed as brain hemorrhage at 0.005 uM after 72 hrs by visual analysis (reference value: 0%); format: organism-based; conditions: in vivo
[32] = species: Danio rerio; experiment: Toxicity in zebrafish embryos assessed as brain hemorrhage at 0.05 uM after 72 hrs by visual analysis (reference value: 0%); format: organism-based; conditions: in vivo
[33] = species: Danio rerio; experiment: Toxicity in zebrafish embryos assessed as brain hemorrhage at 0.5 uM after 72 hrs by visual analysis (reference value: 0%); format: organism-based; conditions: in vivo
[34] = species: Danio rerio; experiment: Toxicity in zebrafish embryos assessed as brain hemorrhage at 5 uM after 72 hrs by visual analysis (reference value: 0%); format: organism-based; conditions: in vivo
[35] = test system: Danio rerio; experiment: Toxicity in zebrafish embryos assessed as yolk sac edema at 0.005 uM after 72 hrs by visual analysis (reference value: 0%); format: organism-based, Embryo; conditions: in vivo
[36] = test system: Danio rerio; experiment: Toxicity in zebrafish embryos assessed as yolk sac edema at 0.05 uM after 72 hrs by visual analysis (reference value: 0%); format: organism-based, Embryo; conditions: in vivo
[37] = test system: Danio rerio; experiment: Toxicity in zebrafish embryos assessed as yolk sac edema at 5 uM after 72 hrs by visual analysis (reference value: 0%); format: organism-based, Embryo; conditions: in vivo
[38] = species: Danio rerio; experiment: Toxicity in zebrafish embryos assessed as small eyes at 0.005 uM after 72 hrs by visual analysis (reference value: 10%); format: organism-based, Embryo; conditions: in vivo
[39] = species: Danio rerio; experiment: Toxicity in zebrafish embryos assessed as small eyes at 5 uM after 72 hrs by visual analysis (reference value: 10%); format: organism-based, Embryo; conditions: in vivo
[40] = species: Danio rerio; experiment: Toxicity in zebrafish embryos assessed as small eyes at 50 uM after 72 hrs by visual analysis (reference value: 10%); format: organism-based, Embryo; conditions: in vivo
[41] = test system: HPBALL; experiment: Induction of apoptosis in human HPBALL cells assessed as increase in apoptotic cells at 5 uM after 24 hrs using annexin V/PI followed by flow cytometry; format: functional, cell-based
[42] = test system: HPBALL; experiment: Induction of apoptosis in human HPBALL cells assessed as increase in apoptotic cells at 5 uM after 48 hrs by using annexin V/PI followed by flow cytometry; format: functional, cell-based
[43] = test system: HPBALL; experiment: Induction of apoptosis in human HPBALL cells assessed as increase in apoptotic cells at 5 uM after 72 hrs using annexin V/PI followed by flow cytometry; format: functional, cell-based
[44] = test system: K562; experiment: Induction of apoptosis in human K562 cells assessed as apoptosis at 2.9 uM after 24 to 72 hrs using annexin V/PI followed by flow cytometry; format: functional, cell-based; conditions: time 24-72 hrs

Sequence of Histone deacetylase 3 (O15379 whole entry): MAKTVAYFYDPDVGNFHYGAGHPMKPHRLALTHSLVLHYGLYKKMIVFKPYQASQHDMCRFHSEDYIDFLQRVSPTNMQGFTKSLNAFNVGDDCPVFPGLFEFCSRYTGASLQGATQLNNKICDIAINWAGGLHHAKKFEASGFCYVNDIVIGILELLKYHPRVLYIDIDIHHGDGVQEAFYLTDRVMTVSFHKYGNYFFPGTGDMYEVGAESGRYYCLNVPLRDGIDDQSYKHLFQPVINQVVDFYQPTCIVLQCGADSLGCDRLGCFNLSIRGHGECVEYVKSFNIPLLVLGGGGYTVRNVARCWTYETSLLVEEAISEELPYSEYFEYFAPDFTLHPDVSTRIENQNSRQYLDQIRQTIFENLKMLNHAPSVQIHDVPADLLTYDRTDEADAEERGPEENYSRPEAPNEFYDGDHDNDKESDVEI

Cc1[nH]c(C(=O)Nc2cc(S(=O)(=O)N3CCOCC3)ccc2OCCCCCCCC(=O)NO)c2c1C(=O)CCCC2
viability at 5 µM [1]: 50% | pIC50 [2]: 6.53 | pIC50 [3]: 5.15 | pIC50 [4]: 5.22 | survival at 72 h, 0.005 µM [5]: 100% | survival at 72 h, 0.5 µM [6]: 100% | survival at 72 h, 50 µM [7]: 100% | inhibition [8]: Active | Activity [9]: Active | Activity [10]: Active | Activity [11]: Active | Activity [12]: Active | Activity [13]: 20% | Activity [14]: 15% | Activity [15]: 0% | Activity [16]: 15% | Activity [17]: 15% | Activity [18]: 0% | Activity [19]: 15% | Activity [20]: 15% | Activity [21]: 15% | Activity [22]: 15% | Activity [23]: 10% | Activity [24]: 15% | Activity [25]: 10% | Activity [26]: 0% | Activity [27]: 0% | Activity [28]: 0% | Activity [29]: 40% | Activity [30]: 0% | Activity [31]: 0% | Activity [32]: 0% | Activity [33]: 0% | Activity [34]: 0% | Activity [35]: 5% | Activity [36]: 5% | Activity [37]: 0% | Activity [38]: 10% | Activity [39]: 5% | Activity [40]: 10%

CCc1c(C(=O)Nc2cc(/C=C/C(=O)NO)ccc2OC)[nH]c(C)c1C(C)=O
viability at 5 µM [1]: 15.1% | pIC50 [2]: 6.92 | pIC50 [3]: 5.17 | pIC50 [4]: 5.47 | Activity [8]: Active | inhibition [9]: Active | Activity [41]: Active | Activity [42]: Active | Activity [43]: inactive | Activity [10]: Active

COc1ccc(S(=O)(=O)n2ccc(/C=C/C(=O)NO)c2)cc1NC(=O)c1[nH]c(C)c2c1CCCCC2=O
viability at 5 µM [1]: 10.6% | pIC50 [2]: 7.19 | pIC50 [3]: 5.20 | pIC50 [4]: 5.54 | Activity [44]: Active | inhibition [8]: Active | Activity [9]: Active | Activity [41]: Active | Activity [42]: Active | Activity [43]: Active | Activity [10]: Active
